According to PubChem BioAssay AID248 (DTP/NCI, 2004):
Values joined by “and” are separate entries in the source; they are usually repeats but may differ in a detail not shown here. Equal entries are not always repeated. Toxic doses and inconclusive results are not listed. Rule as the data show it: active = T/C of 150% or more; inactive = T/C below 125%.

Test system: L1210 leukemia ip in BDF1 mice, survival T/C
Assay: NCI In Vivo Anticancer Drug Screen. Data for tumor model L1210 Leukemia (intraperitoneal) in B6D2F1 (BDF1) mice
Conditions: endpoint: mean survival time, higher = longer survival
Method in brief: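 Antitumor effect is assessed in tumor-bearing animals. Survival in the compound arm is compared with a vehicle-dosed control arm and expressed as their quotient.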

[1] = dose: 25.0 mg/kg/injection, schedule: Q01DX009 (ip), vehicle: saline
[2] = dose: 50.0 mg/kg/injection, schedule: Q01DX009 (ip), vehicle: saline
[3] = dose: 100.0 mg/kg/injection, schedule: Q04DX002 (ip), vehicle: saline
[4] = dose: 12.5 mg/kg/injection, schedule: Q01DX009 (ip), vehicle: saline
[5] = dose: 100.0 mg/kg/injection, schedule: Q01DX009 (ip), vehicle: saline with Tween-80
[6] = dose: 100.0 mg/kg/injection, schedule: Q04DX003 (ip), vehicle: saline with Tween-80
[7] = dose: 200.0 mg/kg/injection, schedule: Q01DX009 (ip), vehicle: saline with Tween-80
[8] = dose: 200.0 mg/kg/injection, schedule: Q04DX003 (ip), vehicle: saline with Tween-80
[9] = dose: 400.0 mg/kg/injection, schedule: Q01DX009 (ip), vehicle: saline with Tween-80
[10] = dose: 400.0 mg/kg/injection, schedule: Q04DX003 (ip), vehicle: saline with Tween-80
[11] = dose: 100.0 mg/kg/injection, schedule: Q04DX002 (ip), vehicle: Klucel (hydroxypropylcellulose) (HPC)
[12] = dose: 200.0 mg/kg/injection, schedule: Q04DX002 (ip), vehicle: Klucel (hydroxypropylcellulose) (HPC)
[13] = dose: 400.0 mg/kg/injection, schedule: Q04DX002 (ip), vehicle: Klucel (hydroxypropylcellulose) (HPC)
[14] = dose: 100.0 mg/kg/injection, schedule: Q01DX009 (ip), vehicle: Klucel (hydroxypropylcellulose) (HPC)
[15] = dose: 200.0 mg/kg/injection, schedule: Q01DX009 (ip), vehicle: Klucel (hydroxypropylcellulose) (HPC)
[16] = dose: 100.0 mg/kg/injection, schedule: Q04DX003 (ip), vehicle: saline
[17] = dose: 200.0 mg/kg/injection, schedule: Q04DX003 (ip), vehicle: saline
[18] = dose: 400.0 mg/kg/injection, schedule: Q04DX003 (ip), vehicle: saline
[19] = dose: 100.0 mg/kg/injection, schedule: Q04DX003 (ip), vehicle: Klucel (hydroxypropylcellulose) (HPC)
[20] = dose: 400.0 mg/kg/injection, schedule: Q01DX009 (ip), vehicle: Klucel (hydroxypropylcellulose) (HPC)
[21] = dose: 25.0 mg/kg/injection, schedule: Q04DX003 (ip), vehicle: Klucel (hydroxypropylcellulose) (HPC)
[22] = dose: 50.0 mg/kg/injection, schedule: Q04DX003 (ip), vehicle: Klucel (hydroxypropylcellulose) (HPC)
[23] = dose: 50.0 mg/kg/injection, schedule: Q01DX001 (ip), vehicle: saline
[24] = dose: 25.0 mg/kg/injection, schedule: Q01DX009 (ip), vehicle: Klucel (hydroxypropylcellulose) (HPC)
[25] = dose: 50.0 mg/kg/injection, schedule: Q01DX009 (ip), vehicle: Klucel (hydroxypropylcellulose) (HPC)

Measured: T/C

CC(C)CCN=C(N)N=C(N)N
inactive: [1] 105 % of control | [2] 107 % of control | dose: 100.0 mg/kg/injection, schedule: Q01DX009 (ip), vehicle: saline 104 % of control | [3] 100 % of control

OCC1OC(Nc2ncnc3c2ncn3C2OC(CO)C(O)C2O)C(O)C1O (stereo unspecified)
inactive: dose: 12.5 mg/kg/injection, schedule: Q01DX005 (ip), vehicle: saline 96 % of control | [4] 100 % of control | dose: 25.0 mg/kg/injection, schedule: Q01DX005 (ip), vehicle: saline 104 % of control | [1] 103 % of control | dose: 50.0 mg/kg/injection, schedule: Q01DX005 (ip), vehicle: saline 117 % of control

CCCCCCC(C)O[Si](C)c1ccccc1C (stereo unspecified)
inactive: [5] 98 % of control | [6] 98 % of control | [7] 100 % of control | [8] 98 % of control | [9] 111 % of control | [10] 98 % of control

N#Cc1cc[n+](Cc2ccccc2)cc1
inactive: dose: 75.0 mg/kg/injection, schedule: Q01DX001 (ip), vehicle: saline 101 % of control | dose: 150.0 mg/kg/injection, schedule: Q01DX001 (ip), vehicle: saline 102 % of control

CCCCCCCCCCCCOC(=O)c1cc(O)c(O)c(O)c1
inactive: dose: 75.0 mg/kg/injection, schedule: Q01DX001 (ip), vehicle: acetone 103 % of control

O=C(Nc1cc([N+](=O)[O-])ccc1Cl)c1ccc(F)cc1
inactive: [11] 102 % of control | [12] 98 % of control | [13] 102 % of control

O=c1cc(-c2cccs2)ss1
inactive: [5] 89 % of control | [6] 102 % of control | [7] 105 % of control | [8] 94 % of control | [9] 86 % of control | [10] 104 % of control

COc1cc(Nc2cc(N)nc(N)n2)cc(OC)c1OC
inactive: [6] 95 % of control | [8] 98 % of control | [10] 88 % of control

CCC(c1ccc2cc(OC)ccc2c1)C(C)(C)C(=O)O (stereo unspecified)
inactive: dose: 100.0 mg/kg/injection, schedule: Q01DX001 (sc), vehicle: steriod suspending solution 112 % of control | dose: 200.0 mg/kg/injection, schedule: Q01DX001 (sc), vehicle: steriod suspending solution 95 % of control | dose: 400.0 mg/kg/injection, schedule: Q01DX001 (sc), vehicle: steriod suspending solution 101 % of control

CCNC(C)(C)C(O)c1ccc(Cl)s1 (stereo unspecified)
inactive: [5] 98 % of control | [6] 100 % of control | [7] 98 % of control | [8] 102 % of control | [10] 103 % of control

C1=CC=CN(c2ccccc2)C=C1
inactive: [14] 108 % of control | [15] 104 % of control

O=C(N/N=C/c1ccc2c(c1)OCO2)c1ccco1
inactive: dose: 100.0 mg/kg/injection, schedule: Q01DX001 (ip), vehicle: other 96 % of control | dose: 200.0 mg/kg/injection, schedule: Q01DX001 (ip), vehicle: other 93 % of control | dose: 400.0 mg/kg/injection, schedule: Q01DX001 (ip), vehicle: other 98 % of control

O=C(CCl)Nc1ccccn1
inactive: [16] 97 % of control | [17] 97 % of control | [18] 88 % of control

CCCCCCCCCC(O)CC (stereo unspecified)
inactive: [14] 106 % of control | [19] 103 % of control | [15] 102 % of control | dose: 200.0 mg/kg/injection, schedule: Q04DX003 (ip), vehicle: Klucel (hydroxypropylcellulose) (HPC) 103 % of control | [20] 105 % of control | dose: 400.0 mg/kg/injection, schedule: Q04DX003 (ip), vehicle: Klucel (hydroxypropylcellulose) (HPC) 103 % of control

O=C1C=C(Nc2cccc(Cl)c2)C(=O)N1c1cccc(Cl)c1
inactive: dose: 75.0 mg/kg/injection, schedule: Q04DX003 (ip), vehicle: other 106 % of control | dose: 150.0 mg/kg/injection, schedule: Q04DX003 (ip), vehicle: other 91 % of control | dose: 300.0 mg/kg/injection, schedule: Q04DX003 (ip), vehicle: other 90 % of control

C/C(=N/N(C)C)c1ccc(Cl)cc1
inactive: [4] 105 % of control | [1] 112 % of control | [2] 111 % of control | [16] 101 % of control

CC[CH2][Pb]([Cl])([CH2]CC)[CH2]CC
inactive: dose: 12.5 mg/kg/injection, schedule: Q04DX003 (ip), vehicle: Klucel (hydroxypropylcellulose) (HPC) 106 % of control | [21] 95 % of control | [22] 90 % of control

NC(CCl)=NC1CCCC1
inactive: dose: 25.0 mg/kg/injection, schedule: Q04DX002 (ip), vehicle: saline 109 % of control | dose: 50.0 mg/kg/injection, schedule: Q04DX002 (ip), vehicle: saline 102 % of control | [3] 121 % of control

O=C1CC2CCCCC2c2ccccc21 (stereo unspecified)
inactive: dose: 12.5 mg/kg/injection, schedule: Q01DX001 (ip), vehicle: saline 114 % of control | dose: 25.0 mg/kg/injection, schedule: Q01DX001 (ip), vehicle: saline 102 % of control | [23] 100 % of control

C[N+]1(C)CCN(c2ccccc2)CC1
inactive: dose: 9.38 mg/kg/injection, schedule: Q01DX001 (ip), vehicle: saline 108 % of control | dose: 18.75 mg/kg/injection, schedule: Q01DX001 (ip), vehicle: saline 105 % of control

CCCCCCC[As](=O)(O)CCCCCCC
inactive: [23] 106 % of control | dose: 100.0 mg/kg/injection, schedule: Q01DX001 (ip), vehicle: saline 103 % of control | dose: 200.0 mg/kg/injection, schedule: Q01DX001 (ip), vehicle: saline 101 % of control

COc1ccc(Cl)cc1NS(=O)(=O)c1ccc(Cl)cc1
inactive: [14] 97 % of control | [15] 102 % of control | [20] 92 % of control

CN(C)CCOc1ncnc2nc[nH]c12
inactive: [16] 101 % of control | [17] 102 % of control | [18] 96 % of control

CC(C)(SCCc1ccccn1)C(N)C(=O)O (stereo unspecified)
inactive: dose: 100.0 mg/kg/injection, schedule: Q01DX001 (ip), vehicle: Klucel (hydroxypropylcellulose) (HPC) 102 % of control | dose: 200.0 mg/kg/injection, schedule: Q01DX001 (ip), vehicle: Klucel (hydroxypropylcellulose) (HPC) 107 % of control | dose: 400.0 mg/kg/injection, schedule: Q01DX001 (ip), vehicle: Klucel (hydroxypropylcellulose) (HPC) 96 % of control

CCN(CC)C(=O)Nc1ccccc1F
inactive: [14] 104 % of control | [15] 98 % of control | [20] 119 % of control

O=C(O)COc1cc(F)ccc1[N+](=O)[O-]
inactive: [11] 91 % of control | [12] 102 % of control | [13] 107 % of control

Cc1ccc(C)c2c(CC(=O)O)c[nH]c12
inactive: dose: 100.0 mg/kg/injection, schedule: Q01DX001 (ip), vehicle: saline with Tween-80 100 % of control | dose: 200.0 mg/kg/injection, schedule: Q01DX001 (ip), vehicle: saline with Tween-80 107 % of control | dose: 400.0 mg/kg/injection, schedule: Q01DX001 (ip), vehicle: saline with Tween-80 102 % of control

CCCC[P+](c1ccccc1)(c1ccccc1)c1ccccc1
inactive: dose: 6.25 mg/kg/injection, schedule: Q04DX003 (ip), vehicle: saline 107 % of control | dose: 12.5 mg/kg/injection, schedule: Q01DX009 (ip), vehicle: Klucel (hydroxypropylcellulose) (HPC) 114 % of control | [4] 113 % of control | dose: 12.5 mg/kg/injection, schedule: Q04DX003 (ip), vehicle: saline 107 % of control | [24] 112 % of control | [1] 115 % of control | dose: 25.0 mg/kg/injection, schedule: Q04DX003 (ip), vehicle: saline 105 % of control | [25] 109 % of control | dose: 50.0 mg/kg/injection, schedule: Q04DX003 (ip), vehicle: saline 104 % of control

CCCC[P+](CCCC)(CCCC)Cc1ccc(C(=O)Oc2ccc([N+](=O)[O-])cc2)cc1
inactive: [24] 98 % of control | [21] 91 % of control | [25] 89 % of control | [22] 93 % of control | [14] 102 % of control | [19] 96 % of control and 88 % of control
